Earlier results as cited in patent publication US10596151B2, “Methods and pharmaceutical compositions for reducing arterial stiffness with a combination of a therapeutic agent blocking the angiotensin receptor and a therapeutic agent inhibiting the NEP enzyme” (Novartis AG, priority 2015, dated 2020).

Tested on: patients with hypertension
Details: after 12 weeks of therapy; cited from earlier work

O=C(N[C@H]1CCS[C@H]2CCC[C@@H](C(=O)O)N2C1=O)[C@@H](S)Cc1ccccc1 [omapatrilat]
aortic characteristic impedance compared with enalapril: greater improvements in aortic characteristic impedance compared with enalapril
